According to the supplement of paper PMC12823440, “Inhibitors supercharge kinase turnover through native proteolytic circuits” (Nature, 2025):
± gives the uncertainty stated by the source.

Key:
Conditions in all cases: lysate: 5-cell-line mix (COLO-205, K562, SK-N-BE(2), MV-4-11, OVCAR-8)
UNC119 [1] = target: UNC119 (UniProt Q13432); assay: apparent Kd (Kinobeads competition)
PAG1 [2] = target: T1, PAG1 (UniProt Q9NWQ8); assay: apparent Kd (Kinobeads competition)
T1 sequence (whole entry): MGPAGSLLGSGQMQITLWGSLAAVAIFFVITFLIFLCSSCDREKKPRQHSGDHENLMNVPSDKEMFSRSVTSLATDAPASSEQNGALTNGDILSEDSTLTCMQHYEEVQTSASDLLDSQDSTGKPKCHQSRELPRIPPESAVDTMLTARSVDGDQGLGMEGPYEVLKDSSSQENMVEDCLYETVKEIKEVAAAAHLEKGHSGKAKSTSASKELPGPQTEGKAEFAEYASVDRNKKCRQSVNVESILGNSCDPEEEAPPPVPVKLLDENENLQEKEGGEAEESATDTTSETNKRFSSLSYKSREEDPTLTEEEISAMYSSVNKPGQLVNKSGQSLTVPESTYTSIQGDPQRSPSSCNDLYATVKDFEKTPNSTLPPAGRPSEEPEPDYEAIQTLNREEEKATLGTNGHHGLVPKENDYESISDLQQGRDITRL

FECH = target: T2, FECH (UniProt P22830); assay: apparent Kd (Kinobeads competition)
T2 sequence (whole entry): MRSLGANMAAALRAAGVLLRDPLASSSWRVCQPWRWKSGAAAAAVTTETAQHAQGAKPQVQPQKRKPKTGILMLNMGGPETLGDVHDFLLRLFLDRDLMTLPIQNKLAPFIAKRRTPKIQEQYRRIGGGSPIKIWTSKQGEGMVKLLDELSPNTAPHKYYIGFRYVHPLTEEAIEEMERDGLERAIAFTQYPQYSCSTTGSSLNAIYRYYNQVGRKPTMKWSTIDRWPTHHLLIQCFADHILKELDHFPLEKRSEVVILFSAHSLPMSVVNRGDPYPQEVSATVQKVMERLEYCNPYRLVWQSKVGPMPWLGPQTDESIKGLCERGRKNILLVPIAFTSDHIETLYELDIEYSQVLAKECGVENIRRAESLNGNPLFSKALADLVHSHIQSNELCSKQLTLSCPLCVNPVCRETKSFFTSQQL

BCR [3] = target: T3, BCR (UniProt P11274); assay: apparent Kd (Kinobeads competition)
T3 sequence (whole entry): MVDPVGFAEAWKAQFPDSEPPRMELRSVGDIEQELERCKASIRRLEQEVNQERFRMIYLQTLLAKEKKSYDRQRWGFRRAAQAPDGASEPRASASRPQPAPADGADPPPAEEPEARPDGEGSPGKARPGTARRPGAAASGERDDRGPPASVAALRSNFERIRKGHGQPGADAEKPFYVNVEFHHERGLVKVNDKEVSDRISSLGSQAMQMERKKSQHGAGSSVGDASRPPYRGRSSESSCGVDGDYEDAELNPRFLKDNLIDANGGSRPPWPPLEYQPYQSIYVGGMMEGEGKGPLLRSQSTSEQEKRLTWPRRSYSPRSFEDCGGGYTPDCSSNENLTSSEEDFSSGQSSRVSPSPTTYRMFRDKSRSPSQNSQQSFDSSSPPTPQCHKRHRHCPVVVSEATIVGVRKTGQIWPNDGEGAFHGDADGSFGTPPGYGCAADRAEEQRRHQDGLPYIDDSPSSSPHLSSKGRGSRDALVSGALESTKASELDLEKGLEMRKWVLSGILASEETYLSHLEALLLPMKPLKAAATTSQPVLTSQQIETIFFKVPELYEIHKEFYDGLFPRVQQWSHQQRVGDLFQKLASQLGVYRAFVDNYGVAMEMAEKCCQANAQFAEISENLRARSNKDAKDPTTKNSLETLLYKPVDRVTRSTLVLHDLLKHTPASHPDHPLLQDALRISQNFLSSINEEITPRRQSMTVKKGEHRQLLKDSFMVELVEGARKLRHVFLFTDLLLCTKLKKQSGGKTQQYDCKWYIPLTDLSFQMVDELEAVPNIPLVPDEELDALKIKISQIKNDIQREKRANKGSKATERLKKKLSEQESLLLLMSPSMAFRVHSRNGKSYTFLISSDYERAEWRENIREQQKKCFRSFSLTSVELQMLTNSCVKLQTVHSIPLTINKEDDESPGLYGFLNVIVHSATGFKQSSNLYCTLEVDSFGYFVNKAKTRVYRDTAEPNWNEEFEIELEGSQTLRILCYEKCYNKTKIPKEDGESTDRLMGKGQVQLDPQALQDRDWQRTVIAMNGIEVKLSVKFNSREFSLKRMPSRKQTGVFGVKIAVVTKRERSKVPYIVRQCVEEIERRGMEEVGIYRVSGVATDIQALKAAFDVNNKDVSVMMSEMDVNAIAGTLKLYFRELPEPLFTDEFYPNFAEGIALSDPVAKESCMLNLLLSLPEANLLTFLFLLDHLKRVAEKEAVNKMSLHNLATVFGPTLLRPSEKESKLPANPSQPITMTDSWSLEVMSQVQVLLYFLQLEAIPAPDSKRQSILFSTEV

BTK = BTK (UniProt Q06187); assay: EC50 for competition of Kinobead binding
UNC119 [4] = target: UNC119 (UniProt Q13432); assay: EC50 for competition of Kinobead binding
ABL2 = ABL2 (UniProt P42684); assay: EC50 for competition of Kinobead binding
PAG1 [5] = target: T1, PAG1; assay: EC50 for competition of Kinobead binding
ABL1 = ABL1 (UniProt P00519); assay: EC50 for competition of Kinobead binding
MAP4K3 = target: T4, MAP4K3 (UniProt Q8IVH8); assay: EC50 for competition of Kinobead binding
T4 sequence (whole entry): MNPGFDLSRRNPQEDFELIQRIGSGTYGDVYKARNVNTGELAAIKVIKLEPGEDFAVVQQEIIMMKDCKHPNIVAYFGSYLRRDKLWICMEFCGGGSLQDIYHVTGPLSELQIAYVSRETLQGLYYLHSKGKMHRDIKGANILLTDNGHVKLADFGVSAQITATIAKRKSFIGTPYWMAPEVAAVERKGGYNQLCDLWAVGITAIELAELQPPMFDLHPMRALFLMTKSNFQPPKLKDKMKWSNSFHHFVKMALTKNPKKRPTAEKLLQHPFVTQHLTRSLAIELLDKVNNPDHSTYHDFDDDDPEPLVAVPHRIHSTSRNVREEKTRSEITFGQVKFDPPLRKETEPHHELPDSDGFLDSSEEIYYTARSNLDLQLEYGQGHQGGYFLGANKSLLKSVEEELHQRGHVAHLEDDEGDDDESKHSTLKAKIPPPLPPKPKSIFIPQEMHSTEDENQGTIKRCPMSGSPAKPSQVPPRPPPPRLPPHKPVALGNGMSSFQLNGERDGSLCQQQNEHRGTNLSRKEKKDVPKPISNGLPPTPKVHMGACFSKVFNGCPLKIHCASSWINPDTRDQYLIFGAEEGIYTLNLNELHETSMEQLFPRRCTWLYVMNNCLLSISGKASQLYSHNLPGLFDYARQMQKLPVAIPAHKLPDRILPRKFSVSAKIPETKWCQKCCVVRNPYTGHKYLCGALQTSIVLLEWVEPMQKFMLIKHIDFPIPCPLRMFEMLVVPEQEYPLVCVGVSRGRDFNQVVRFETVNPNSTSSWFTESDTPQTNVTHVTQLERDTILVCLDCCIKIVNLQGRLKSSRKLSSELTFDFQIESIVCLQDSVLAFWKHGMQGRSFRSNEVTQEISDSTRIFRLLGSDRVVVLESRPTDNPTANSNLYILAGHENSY

BCR [6] = target: T3, BCR; assay: EC50 for competition of Kinobead binding
FRK = FRK (UniProt P42685); assay: EC50 for competition of Kinobead binding
FRK, sequence (P42685 whole entry): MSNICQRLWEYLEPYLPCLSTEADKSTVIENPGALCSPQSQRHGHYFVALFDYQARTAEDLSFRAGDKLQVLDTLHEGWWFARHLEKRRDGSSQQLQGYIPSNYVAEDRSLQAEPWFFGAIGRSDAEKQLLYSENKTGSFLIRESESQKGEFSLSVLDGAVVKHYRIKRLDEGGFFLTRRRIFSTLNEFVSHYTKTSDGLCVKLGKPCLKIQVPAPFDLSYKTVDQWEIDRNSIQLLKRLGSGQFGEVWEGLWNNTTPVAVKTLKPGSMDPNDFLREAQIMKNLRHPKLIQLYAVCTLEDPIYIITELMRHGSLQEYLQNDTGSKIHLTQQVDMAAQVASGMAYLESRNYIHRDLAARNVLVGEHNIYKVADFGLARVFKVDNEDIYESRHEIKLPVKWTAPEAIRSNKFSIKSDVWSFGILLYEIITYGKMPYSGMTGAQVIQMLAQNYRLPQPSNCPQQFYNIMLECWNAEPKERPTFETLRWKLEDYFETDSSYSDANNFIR

ABL2, sequence (P42684 whole entry): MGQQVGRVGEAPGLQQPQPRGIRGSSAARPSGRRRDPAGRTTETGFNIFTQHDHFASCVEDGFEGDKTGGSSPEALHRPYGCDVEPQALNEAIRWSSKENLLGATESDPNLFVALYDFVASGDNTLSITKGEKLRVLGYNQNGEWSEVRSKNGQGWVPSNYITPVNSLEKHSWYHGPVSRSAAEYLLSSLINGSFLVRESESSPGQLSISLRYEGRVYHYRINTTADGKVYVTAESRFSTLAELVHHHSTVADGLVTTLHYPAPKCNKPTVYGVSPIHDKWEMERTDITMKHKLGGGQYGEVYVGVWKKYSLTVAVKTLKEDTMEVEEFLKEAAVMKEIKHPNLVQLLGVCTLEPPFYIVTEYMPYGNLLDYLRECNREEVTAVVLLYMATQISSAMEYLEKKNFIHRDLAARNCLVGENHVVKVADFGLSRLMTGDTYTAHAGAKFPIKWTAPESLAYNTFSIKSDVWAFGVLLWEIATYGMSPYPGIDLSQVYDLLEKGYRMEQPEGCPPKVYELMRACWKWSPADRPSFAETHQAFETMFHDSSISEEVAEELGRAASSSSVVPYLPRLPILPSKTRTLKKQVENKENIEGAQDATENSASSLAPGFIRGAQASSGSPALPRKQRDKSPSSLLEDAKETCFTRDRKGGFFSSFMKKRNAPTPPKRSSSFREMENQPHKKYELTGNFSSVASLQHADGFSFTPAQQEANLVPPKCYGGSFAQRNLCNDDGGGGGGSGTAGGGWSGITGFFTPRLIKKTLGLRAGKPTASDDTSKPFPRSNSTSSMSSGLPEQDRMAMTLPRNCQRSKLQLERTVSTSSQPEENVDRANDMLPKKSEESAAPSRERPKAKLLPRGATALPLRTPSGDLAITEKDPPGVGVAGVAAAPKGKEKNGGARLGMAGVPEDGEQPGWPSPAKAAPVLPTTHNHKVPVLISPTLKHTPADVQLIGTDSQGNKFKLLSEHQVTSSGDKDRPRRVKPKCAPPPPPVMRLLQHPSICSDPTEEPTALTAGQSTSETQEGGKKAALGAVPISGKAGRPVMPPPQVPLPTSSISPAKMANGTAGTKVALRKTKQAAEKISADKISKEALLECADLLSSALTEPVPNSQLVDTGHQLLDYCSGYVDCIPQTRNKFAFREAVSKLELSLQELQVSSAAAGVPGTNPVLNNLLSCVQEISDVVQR
BTK, sequence (Q06187 whole entry): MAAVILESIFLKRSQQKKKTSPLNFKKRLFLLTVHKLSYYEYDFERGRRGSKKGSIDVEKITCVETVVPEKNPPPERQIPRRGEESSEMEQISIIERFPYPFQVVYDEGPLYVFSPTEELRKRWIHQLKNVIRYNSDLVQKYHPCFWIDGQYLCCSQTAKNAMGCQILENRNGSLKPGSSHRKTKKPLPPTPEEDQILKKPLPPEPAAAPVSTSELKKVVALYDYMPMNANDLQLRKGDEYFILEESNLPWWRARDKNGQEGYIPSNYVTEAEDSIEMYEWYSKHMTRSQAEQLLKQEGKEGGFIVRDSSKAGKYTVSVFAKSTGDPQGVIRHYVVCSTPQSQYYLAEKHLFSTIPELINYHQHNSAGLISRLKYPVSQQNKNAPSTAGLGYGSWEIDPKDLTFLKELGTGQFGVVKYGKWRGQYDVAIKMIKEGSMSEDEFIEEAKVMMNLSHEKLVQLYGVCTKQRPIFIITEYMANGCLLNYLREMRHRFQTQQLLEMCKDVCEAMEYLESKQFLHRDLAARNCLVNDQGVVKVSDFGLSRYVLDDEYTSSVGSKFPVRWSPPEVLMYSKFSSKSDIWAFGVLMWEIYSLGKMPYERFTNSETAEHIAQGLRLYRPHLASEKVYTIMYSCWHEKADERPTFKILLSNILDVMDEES
ABL1, sequence (P00519 whole entry): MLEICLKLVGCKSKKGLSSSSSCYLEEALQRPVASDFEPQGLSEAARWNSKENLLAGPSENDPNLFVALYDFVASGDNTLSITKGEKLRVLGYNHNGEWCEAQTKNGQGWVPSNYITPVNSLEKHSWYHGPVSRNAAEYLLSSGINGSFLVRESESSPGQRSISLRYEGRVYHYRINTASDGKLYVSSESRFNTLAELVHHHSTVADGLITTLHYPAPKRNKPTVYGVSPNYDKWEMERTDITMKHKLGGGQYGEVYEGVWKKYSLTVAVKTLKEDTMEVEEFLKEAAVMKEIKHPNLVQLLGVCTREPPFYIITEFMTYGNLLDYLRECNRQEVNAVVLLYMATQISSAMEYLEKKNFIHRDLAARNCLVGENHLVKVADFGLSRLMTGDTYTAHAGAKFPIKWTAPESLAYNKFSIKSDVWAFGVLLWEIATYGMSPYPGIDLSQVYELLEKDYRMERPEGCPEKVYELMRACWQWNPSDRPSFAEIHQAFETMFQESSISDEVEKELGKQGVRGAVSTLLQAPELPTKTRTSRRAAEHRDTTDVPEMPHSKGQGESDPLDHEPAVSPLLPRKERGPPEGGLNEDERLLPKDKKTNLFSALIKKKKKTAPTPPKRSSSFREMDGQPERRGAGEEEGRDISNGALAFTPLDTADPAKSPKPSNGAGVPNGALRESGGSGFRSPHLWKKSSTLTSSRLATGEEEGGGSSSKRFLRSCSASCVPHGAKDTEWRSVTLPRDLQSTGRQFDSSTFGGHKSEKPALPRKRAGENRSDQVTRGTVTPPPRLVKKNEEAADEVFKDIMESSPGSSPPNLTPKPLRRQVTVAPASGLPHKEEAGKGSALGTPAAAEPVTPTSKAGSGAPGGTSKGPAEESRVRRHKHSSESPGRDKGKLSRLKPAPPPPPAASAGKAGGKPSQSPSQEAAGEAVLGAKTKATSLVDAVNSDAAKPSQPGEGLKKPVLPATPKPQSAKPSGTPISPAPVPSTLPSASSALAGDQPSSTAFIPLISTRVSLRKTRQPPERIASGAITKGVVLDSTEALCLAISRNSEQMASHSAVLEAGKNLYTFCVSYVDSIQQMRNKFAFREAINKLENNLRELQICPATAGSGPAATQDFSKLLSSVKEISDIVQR

COc1ccc2c(C(=O)Nc3ccc(NC(=O)c4nn(C5CCN(C(=O)CC(C)(C)C#N)CC5)c5ccc(F)cc45)cc3Cl)cnn2c1 [Src Inhibitor 3]
Kd (UNC119 [1]): 24.1 nM
Kd (PAG1 [2]): 48.4 nM
Kd (FECH): 6350 nM
Kd (BCR [3]): 127 nM
EC50 (BTK): 4250 ± 2700 nM
EC50 (UNC119 [4]): 904 ± 250 nM
EC50 (ABL2): 332 ± 170 nM
EC50 (PAG1 [5]): 70.9 ± 11 nM
EC50 (ABL1): 1530 ± 2600 nM
EC50 (MAP4K3): 14300 ± 28000 nM
EC50 (BCR [6]): 790 ± 430 nM
EC50 (FRK): 17600 ± 34000 nM
